Legend:
Conditions in all cases: 2 h
[1] = tested on: Liver microsome; experiment: Metabolic stability in human liver microsomes at 10 uM up to 120 mins by HPLC analysis; type: ADME
[2] = Metabolic stability in mouse liver microsomes at 10 uM up to 120 mins by HPLC analysis; type: ADME
[3] = tested on: Liver microsome; experiment: Metabolic stability in dog liver microsomes at 10 uM up to 120 mins by HPLC analysis; type: ADME, Canis lupus familiaris

Measured: Stability

Nc1ncc(-c2nc(N3CCOCC3)c3cccn3n2)cn1
Stable: all assays above

c1cc(-c2nc(N3CCOCC3)c3cccn3n2)c2cn[nH]c2c1
Stable: all assays above

COCc1ccc2c(N3CCOCC3)nc(-c3cnc(N)nc3)nn12
Stable: all assays above
